Tests used:
[1] = system: U937-CD200R cells; assay: Cytokine release (IL-6 inhibition) assay, LPS stimulated U937-CD200R cells; format: cell-based, human
Protocol: Cytokine production, including IL-6, from these cells can be induced by stimulation with PMA and then LPS.
50,000 U937 cells per well were seeded in 96 well plates and differentiated following incubation for 72 hours with 100 nM PMA. Following differentiation, the PMA containing media was replaced with fresh assay media and incubated for a further 2 hours prior to treatment. CD200-Fc constructs were added with or without Fc block to the cell culture and incubated for 1 hour, then cells were stimulated with 100 ng/ml LPS and incubated for a further 24 hours. Following the final incubation, cell supernatant (diluted 1:10) was collected and assayed for IL-6 secretion by ELISA assay using a commercially available kit.
Cell line construction, cytokine inhibition testing, and cell binding testing were conducted using similar techniques as in Example 3 above.

[2] = target: T1, human CD200R (Homo sapiens, UniProt Q8TD46); assay: BIAcore SPR binding of CD200-Fc to human CD200R
T1 construct: His; purchased Creative Biomart CD200R1-320H
T1 sequence (Q8TD46 25-348): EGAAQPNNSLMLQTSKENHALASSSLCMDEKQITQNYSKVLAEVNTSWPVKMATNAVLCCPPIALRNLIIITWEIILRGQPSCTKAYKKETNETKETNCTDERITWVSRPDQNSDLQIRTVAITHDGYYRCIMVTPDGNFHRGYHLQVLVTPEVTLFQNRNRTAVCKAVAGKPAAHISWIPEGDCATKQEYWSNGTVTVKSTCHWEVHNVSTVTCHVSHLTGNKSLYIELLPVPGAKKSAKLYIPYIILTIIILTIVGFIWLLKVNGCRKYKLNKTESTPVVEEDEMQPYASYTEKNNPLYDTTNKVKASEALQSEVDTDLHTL
Excerpt: (§1) BIAcore instrumentation uses an optical method, Surface Plasmon Resonance (SPR), to measure the binding characteristics of two interacting molecules; in this case wild-type CD200-Fc or CD200-Fc mutants binding to the CD200 receptor (CD200R). The technique measures changes in the refractive index of one of the two interacting molecules captured on a chip (sensor) when the second molecule is flowed in solution over the captured partner. In these experiments CD200-Fc was immobilized on the chip (sensor) surface and CD200R was injected in an aqueous buffer over the captured CD200-Fc under continuous flow conditions. Changes in the CD200-Fc refractive index following CD200R binding were measured in real time and the result plotted as response units (RUs) versus time to generate sensorgrams.
The experiments were performed on a GE Healthcare BIAcore T200. Human, cynomolgus and mouse CD200R proteins were purchased from Creative Biomart (CD200R1-320H, CD200R1-3483C, CD200R1-3280M). All measurements were performed in duplicate.
For human CD200 constructs: anti-human Fc (GE Healthcare) was covalently immobilized on a BIAcore CM5 sensor chip (Cytiva, BR100530) by amine coupling using a Cytiva kit (BR100839) following the manufacturer's instructions, targeting immobilization of 8,000-11,000 RU. […]
(§2) For mouse CD200 constructs, muCD200R-Fc (Creative Biomart CD200R1-458M) diluted to 1 μg/mL in running buffer was flowed over the immobilized Anti-Human IgG Fc, with CD200 monomers serially diluted and flowed over captured CD200R. […] Data analysis: experimental sensorgrams were analyzed in BIAevaluation software (GE Healthcare). […] Closeness of fit was determined by algorithms provided by the manufacturer in the BIAevaluation software, and data accepted if the Chi^2 value was less than 10% of Rmax, and the U value was less than or equal to 15.

[3] = system: cyno CD200R; assay: BIAcore SPR binding of CD200-Fc to cynomolgus CD200R; details: 25° C., mean of two runs
Excerpt: as §1
The experiments were performed on a GE Healthcare BIAcore T200. […]
as §2

[4] = human CD200R, 25° C., mean of two runs

ARQ-234: mutated human CD200-Fc fusion protein: CD200 K130Y, I131Y directly fused to IgG4 Fc S228P, M428L, N434S
inhibition of LPS stimulated IL-6 release ([1]; PMA differentiated U937-CD200R cells, 100 ng/ml LPS, 24 hours, ELISA): able to inhibit LPS stimulated IL-6 secretion in a concentration dependent manner
effect of Fc block on inhibition of IL-6 release ([1]; with versus without Fc block reagent): No significant difference in inhibition
ka [2, 4]: 221600 M⁻¹ s⁻¹
kd [2, 4]: 0.0004675 s⁻¹
fold greater affinity for human CD200 receptor than wild-type CD200-Fc (DS-155) ([2]; versus DS-155): approx. 84 fold
ka [3]: 159100 M⁻¹ s⁻¹
kd [3]: 0.03997 s⁻¹

— patent publication US20260116946A1, “NOVEL CD200 FUSION PROTEINS” (DUCENTIS BIOTHERAPEUTICS LIMITED, priority 2022, published 2026)
